Patent US10968181B2, “NRF2 activator” (BIOGEN MA INC., priority 2016, dated 2021)

What was measured:
NQO-1 gene = NQO-1 gene induction in spleen of Townes mice; assay type: in vivo, Townes SCD mouse; settings: Townes SS mice, oral single dose 10 or 50 mg/kg or two doses of 25 mg/kg; at least at the 6 hour time point; FIGS. 10A-10C and 12
Description: (§1) All animal experiments conformed to the guidance issued by the Biogen Institutional Animal Care and Use Committee and are described in approved protocols. The SCD mouse strain used in the in vivo studies is the Townes SCD mouse [Wu L C, Sun C W, Ryan™, Pawlik K M, Ren J, Townes™. Correction of sickle cell disease by homologous recombination in embryonic stem cells. Blood. 2006, 108(4):1183-8]. […] These mice harboring the sickle cell mutations in the hemoglobin β-globins chain show the presence of sickle cell disease characterized by abnormally low hemoglobin, circulating sickle shaped erythrocytes, varying degrees of damage of internal organs such as spleen, liver, and kidney. Male and female Townes SS mice aged 8 to 12 weeks were used for studies described here. […]
(§2) Frozen spleens were placed at room temperature. […] Extracted RNA was then quantitated using a Nanodrop and 1 μg of total RNA was converted to cDNA using VILO Mastermix kit according to manufacturer's protocol.
(§3) cDNA prepared from RNA isolated from tissue samples was used to determine gene expression levels of using Taqman based real time PCR (Life Technologies, ThermoFisher Scientific). […] Results were analyzed using the 7500 software version 2.0.5 and the relative levels of transcripts were measured with GAPDH as the endogenous housekeeping gene control using the 2^−ΔΔCt relative quantification method.

Nrf2 target genes [1] = experiment: Nrf2 target gene expression (qRT-PCR) in tissues of wild type and Nrf2−/− mice; assay type: in vivo
Method: All procedures involving animals were performed in accordance with standards established in the Guide for the Care and Use of Laboratory Animals as adopted by the U.S. National Institutes of Health. All animal protocols were approved by the Biogen Institutional Animal Care and Use Committee, which is accredited by the Association for Assessment and Accreditation of Laboratory Animal Care International. Female 6-10 week-old wild type C57BL/6 and Nrf2−/− mice (Itoh et al, 1997; maintained at Jackson Labs, Bar Harbor, Me.) were maintained on a 12-hour light/dark cycle and given access to food and water ad libitum.
Compound 12-Ent1 (25 mg/kg) was administered as a single, oral dose in a vehicle of Solutol HS-15/polyethylene glycol/ethanol/water (10/10/10/70) to C57BL/6 (wt) and Nrf2−/− mice. Brain, jejunum, kidney and spleen were collected at 2 or 6 hours after dosing and snap frozen for RNA analysis of Nrf2 target genes.
For RNA preparation, frozen tissues were placed in 2 mL RNAse-free 96-well blocks with 1.5 ml QIAzol Lysis Reagent (QIAgen) and a 3.2 mm stainless steel bead (BioSpec Products, Bartlesville, Okla.). Tissues were disrupted for four cycles of 45 seconds in a Mini-Beadbeater (Biospec Products). RNA was extracted in chloroform and the aqueous phase was mixed with an equal volume of 70% ethanol. Extracted RNA was applied to RNeasy 96 plates and purified by the spin method according to the manufacturer's protocol (RNeasy 96 Universal Tissue Protocol, QIAgen, Hilden Germany).
qRT-PCR was performed from total mRNA isolated from tissues and reverse-transcribed into cDNA according to manufacturer protocols (Life Technologies, Carlsbad, Calif.). 20× Taqman target gene mouse primer/probe sets (see table below) were mixed with cDNA and 2× Taqman Universal Master Mix to a final volume of 20 uL. All final reactions contained 100 ng of cDNA, 900 nM of each primer, and 250 nM TaqMan® probes and were cycled on a QuantStudio™ 12K Flex system (Life Technologies). All samples were measured in triplicate using beta actin as a normalizing gene. Final analysis was performed using the comparative CT method to calculate fold changes and samples were normalized relative to wild type vehicle control at each time point.

human astrocytes [2] = experiment: Cytoprotection of human astrocytes against sodium arsenite; assay type: cell-based; settings: compound 20 hrs before arsenite, then 22 hrs, FIG. 3
Method: Human astrocytes from ScienCell (cat #1820) were grown in astrocyte medium per supplier's instructions. Cells cultured for no more than two passages were plated in poly-D-lysine coated 96-well plates at 40,000 cells per well for gene transcription experiments and 20,000 cell per well for glutathione and cytoprotection assays. Astrocytes were treated for 20 hrs with test compounds, then the medium was removed and replaced with serum- and supplement-free growth medium with and without 25 μM sodium arsenite. After 22 hrs., cells were washed with PBS, fixed with 4% paraformaldehyde/4% sucrose in PBS, stained with 4′,6-Diamidino-2-phenylindole dihydrochloride (DAPI) and counted by quantitative fluorescence microscopy.

human astrocytes [3] = experiment: Glutathione assay in cultured human astrocytes; assay type: cell-based; settings: 20-hr exposure, FIG. 2
Method: (§4) Human astrocytes from ScienCell (cat #1820) were grown in astrocyte medium per supplier's instructions. Cells cultured for no more than two passages were plated in poly-D-lysine coated 96-well plates at 40,000 cells per well for gene transcription experiments and 20,000 cell per well for glutathione and cytoprotection assays.
Intracellular glutathione was measured after a 20-hr exposure to test compounds by a two-step process. First, cells were lysed and luciferin quantitatively generated from substrate, catalyzed by glutathione-S-transferase in the presence of analyte glutathione. Then luciferin was assayed using stabilized luciferase to produce a luminescent signal proportional to the concentration of glutathione (Promega GSH-Glo, cat #V6912).

γ-globin gene = γ-globin gene induction in spleen of Townes mice; assay type: in vivo, Townes SCD mouse; settings: Townes SS mice, oral single dose 10, 25 or 50 mg/kg or two doses of 25 mg/kg; at least at the 24 hour time point; FIGS. 9A-9D and 11
Description: as §1, §2, §3

HUDEP cells = experiment: HbF protein ELISA in cultured HUDEP cells; assay type: cell-based, human; settings: differentiating HUDEP cells, 72 hours, compared to DMSO; FIG. 8
Method: Human Umbilical Derived Erythroid Cells (HUDEP; from Riken Institute, Japan) were cultured in Stemspan SFEM medium (Stemcell Technologies, Vancouver, Canada) supplemented with erythroid cytokines and growth factors. Compound incubations were performed in HUDEP cells cultured in differentiation media.
Differentiating HUDEP cells were cultured with increasing concentrations of 12-Ent1 or equivalent DMSO concentrations for 72 hours and the levels of HbF protein was measured using a commercially available ELISA specific for human HbF (Bethyl Laboratories, TX) based on manufacturer's protocol.

Nrf2 target genes [4] = experiment: Gene expression (RT-PCR) in cultured human astrocytes; assay type: cell-based; settings: human astrocytes treated 20 hours; compared to 0.03% DMSO vehicle; FIGS. 1A to 1D
Method: as §4
Primary cultures of human spinal cord astrocytes were treated with test compounds for 20 hours. The cells were then rinsed in PBS, lysed, and processed for RNA using Ambion Taqman™ Cells-to-CT kit. The resulting cDNA was stored at −20° C. until analysis by real-time polymerase chain reaction (RT-PCR). The cDNA mixture from Cells-to-CT was diluted 5× before loading into PCR. This yields results similar to using 6 ng of purified cDNA. RT-PCR was performed on Life Technologies QuantStudio platform using OpenArray technique according to manufacturer's protocol using the following Taqman primers: […]
The comparative CT method was used to calculate fold changes using ThermoFisher Cloud software for PCR analysis. Samples were compared to 0.03% DMSO vehicle control.

[5] = wild type vs Nrf2−/− mice, 25 mg/kg oral

CC(=O)N1CC[C@@H]2C(C)(C)C(=O)C(C#N)=C[C@@]2(C)C1 (single isomer, unassigned) [Compound 12-Ent1]
NQO-1 gene in spleen (NQO-1 gene): induces | expression of Akr1b8, Nqo1, Hmox1 and Osgin1 in kidney (Nrf2 target genes [1]; 25 mg/kg single oral dose, 2 hours and 6 hours after dosing, FIGS. 4A to 4D): increases | expression of Akr1b8, Nqo1, Hmox1 and Osgin1 in Jejunum (Nrf2 target genes [1]; 25 mg/kg single oral dose, 2 hours and 6 hours after dosing, FIGS. 5A to 5D): increases | expression of Nqo1, Hmox1 and Osgin1 in spleen (Nrf2 target genes [1]; 25 mg/kg single oral dose, 2 hours and 6 hours after dosing, FIGS. 6A to 6D): increases | expression of Nqo1, Hmox1 and Osgin1 in brain (Nrf2 target genes [1]; 25 mg/kg single oral dose, 2 hours and 6 hours after dosing, FIGS. 7A to 7D): increases | Nrf2 dependence of the gene expression increases in Jejunum (Nrf2 target genes [1]; [5]): Nrf2-dependent | Nrf2 dependence of the gene expression increases in brain (Nrf2 target genes [1]; [5]): Nrf2-dependent | Nrf2 dependence of the gene expression increases in kidney (Nrf2 target genes [1]; [5]): Nrf2-dependent | Nrf2 dependence of the gene expression increases in spleen (Nrf2 target genes [1]; [5]): Nrf2-dependent | protection from oxidative stress-induced cell death caused by 25 μM sodium arsenite (human astrocytes [2]): protects cells | intracellular glutathione (human astrocytes [3]): increases | human γ-globin gene in spleen (γ-globin gene): induces | HbF protein in cultured HUDEP cells (HUDEP cells): induces | transcription of Nrf2 target genes, including GCLC, HMOX1, OSGIN1 and NQO1 (Nrf2 target genes [4]): induces transcription
